Common to all, as to format: physicochemical
Data set [1] is described as follows: HPPA-Na2 solubility in valeraldehyde/valeraldehyde trimers/1-butene at 70° C., filtrate quantified by ion chromatography (Examples 4-6). To be noted: two hours. The method, then: (§1) Valeraldehyde was freshly distilled under reduced pressure prior to use. Valeraldehyde trimers were obtained by vacuum distillation of a commercial catalyst recycle sample. The distillate was determined to be a mixture of 75% valeraldehyde trimers and 25% valeraldehyde dimers by gas chromatography and mass spectrometry (GC/MS). A portion of both valeraldehyde and valeraldehyde trimers was saturated with water, and then blended with freshly distilled material to provide solutions of varying water levels. Unless otherwise noted, all water concentrations were determined by Karl-Fischer titration.
One small portion (130-160 mg) of the disodium salt of hydroxypentylphosphonic acid (HPPA-Na2) was charged to each of three, 3 oz glass pressure vessels. Valeraldehyde, valeraldehyde trimers and 1-butene were then added via syringe and the resulting mixtures (which contained various levels of water) were stirred vigorously at 70° C. for two hours. Samples were then removed at temperature, quickly filtered, and the filtrate was twice extracted with water to facilitate the quantization of HPPA-Na2 solubility by ion chromatography.
The solutions of Examples 4-6 were intended to model actual hydroformylation solution conditions.

Data set [2] in a line: Solubility properties of HPPA-Na2 under simulated hydroformylation reaction conditions with incremental water addition (Example 7). The procedure:
A small portion (67 mg) of the disodium salt of hydroxypentylphosphonic acid (HPPA-Na2) was charged to a 3 oz glass pressure vessel. A 2:1 mixture of valeraldehyde and valeraldehyde trimers (4.07 g) was added, and stirring was initiated at room temperature. Butene-1 (1.22 g) was added via syringe, and the tube was placed in an oil bath at 70° C. Additional water was slowly added to determine solubility properties under simulated hydroformylation reaction conditions. Total water content is based on the initial water level (determined by K—F titration) plus the incremental water additions made throughout.

Data set [3] can be described thus: Observation of HPPA-Na2 in anhydrous valeraldehyde at room temperature (Comparative Example 1). To be noted: 15 mg in anhydrous valeraldehyde (3.52 g; 0.0961 wt % water), two hours. The method, then: One small portion (15 mg) of a disodium salt of hydroxypentylphosphonic acid (HPPA-Na2) was charged to a 20 ml glass vial under nitrogen. Anhydrous valeraldehyde (3.52 g; 0.0961 wt % water) was added and the resulting mixture was stirred at room temperature.

Data set [4] is described as follows: Observation of HPPA-Na2 in valeraldehyde/valeraldehyde trimers (2:1) and 1-butene, stirred at room temperature for two hours (Examples 1-3). The procedure:
as §1
One small portion (70 mg) of a disodium salt of hydroxypentylphosphonic acid (HPPA-Na2) was charged to each of three, 3 oz glass pressure vessels. Valeraldehyde, valeraldehyde trimers (2:1 weight ratio) and 1-butene were then added via syringe and stirred at room temperature for two hours.

Regarding `CCCCC(O)P(=O)([O-])[O-].[Na+].[Na+]` (centres unmarked) [HPPA-Na2, disodium salt of hydroxypentylphosphonic acid], the HPPA-Na2 solubility came out at 4.8 ppm in data set [1] (Ex. 4, Val. 52.0 wt %, Val Trimer 26.0 wt %, 1-butene 21.2 wt %, Water 0.103 wt %); 15.5 ppm in data set [1] (Ex. 5, Val. 52.1 wt %, Val Trimer 26.0 wt %, 1-butene 21.1 wt %, Water 0.380 wt %); 21.3 ppm in data set [1] (Ex. 6, Val. 52.7 wt %, Val Trimer 26.4 wt %, 1-butene 20.8 wt %, Water 0.860 wt %). Also, the Description entry in data set [1] (Ex. 4, Water 0.103 wt %) is “Hazy watery”; in data set [1] (Ex. 5, Water 0.380 wt %), “Very hazy”; in data set [1] (Ex. 6, Water 0.860 wt %) it was “Solid gel”. For the same molecule, the Result entry is listed as “No change” in data set [2] (22 ° C., water content 0.86 %, additive 1.22 g 1-butene); “Opaque with sticky, gelatinous” in data set [2] (22 ° C., water content 0.86 %, additives None); “No change” in data set [2] (70 ° C., water content 0.86 %, additives None); “No change” in data set [2] (70 ° C., water content 3.19 %, additive 0.1 mL water); “Less turbid” in data set [2] (70 ° C., water content 5.54 %, additive 0.1 mL water); “Much less turbid; solids gone” in data set [2] (70 ° C., water content 7.72 %, additive 0.1 mL water). For the same molecule, the Result entry in data set [2] (70 ° C., water content 9.8 %, additive 0.1 mL water) is given as “Clear solution”. For the same molecule, the “Appearance of the solids after stirring” value in data set [3] was “the solids remained free-flowing, suspended particulates”. The Observations result was “Voluminous, gelatinous” in data set [4] (Example 1, val/val trimer 8.42 g, 1-butene 2.41 g, Water 0.29 %); “Mixture of gel and sticky” in data set [4] (Example 2, val/val trimer 8.94 g, 1-butene 2.26 g, Water 0.87 %); “Sticky material on glass” in data set [4] (Example 3, val/val trimer 8.97 g, 1-butene 2.22 g, Water 1.47 %).

The record behind these values is patent US8884072B2, “Mitigation of fouling in hydroformylation processes by water addition” (Dow Technology Investments LLC, priority 2010, dated 2014).
